Experimental data reported in patent US7329757B2 (Bayer Aktiengesellschaft, priority 2000, dated 2008).

Columns and labels:
[1] = logP determination by HPLC on reversed-phase column (C 18), EEC Directive 79/831 Annex V.A8; type: physicochemical
Procedure: The calibration was carried out using unbranched alkan-2-ones (having 3 to 16 carbon atoms) with known logP values (determination of the logP values by the retention times using linear interpolation between two successive alkanones).

weeds [2] = test: Post-emergence test (Example B), damage to weeds; type: in vivo; details: test plants of 5-15 cm sprayed, rated after three weeks
Procedure: (§1) To produce a suitable preparation of active compound, 1 part by weight of active compound is mixed with the stated amount of solvent, the stated amount of emulsifier is added and the concentrate is diluted with water to the desired concentration.
Test plants of a height of 5-15 cm are sprayed with the preparation of active compound such that the particular amounts of active compound desired are applied per unit area. The concentration of the spray liquor is chosen so that the particular amounts of active compound desired are applied in 1000 l of water/ha.
After three weeks, the degree of damage to the plants is rated in % damage in comparison to the development of the untreated controls.

weeds [3] = test: Pre-emergence test (Example A), damage to weeds; type: in vivo; details: soil sprayed 24 hours after sowing, rated after three weeks
Procedure: as §1
Seeds of the test plants are sown in normal soil. After 24 hours, the soil is sprayed with the preparation of active compound such that the particular amount of active compound desired is applied per unit area. The concentration of active compound in the spray liquors is chosen so that the particular amount of active compound desired is applied in 1000 litres of water per hectare.
After three weeks, the degree of damage to the plants is rated in % damage in comparison to the development of the untreated control.

| melting point | Molecule | activity against weeds (degree of damage) (weeds [3]) | also measured |
| --- | --- | --- | --- |
| 122 °C | Cc1cccn(-c2cccc(C(F)(F)F)c2)c1=O [IX-34, 3-methyl-1-(3-trifluoromethyl-phenyl)-2(1H)-pyridinone] | – | – |
| – | O=c1ccc(C(F)(F)F)cn1-c1cccc(C(F)(F)F)c1 [IX-35, 5-trifluoromethyl-1-(3-trifluoromethyl-phenyl)-2(1H)-pyridinone] | – | chromatographic logP ([1]; reversed-phase HPLC column (C 18); labelled a): acidic range, 0.1% aqueous phosphoric acid/acetonitrile gradient, 43° C.): 2.78 |
| 115 °C | Cc1cc/c(=N\C(=O)C(F)(F)F)n(-c2cccc(C(F)(F)F)c2)c1 [Example 1, 2,2,2-trifluoro-N-[5-methyl-1-(3-trifluoromethylphenyl)-2(1H)-pyridinylidene]-acetamide] | strong activity against weeds | activity against weeds (degree of damage) (weeds [2]): strong activity against weeds |
| – | 5-methyl-1-(2,3-difluoromethylenedioxy-phenyl)-2(1H)-pyridinone [IX-28] | – | logP [1]: 3.95 |
| 114 °C | CNC(=O)/N=c1\ccc(C)cn1-c1cccc(C(F)(F)F)c1 [Example 4, N-methyl-N′-[5-methyl-1-(3-trifluoromethylphenyl)-2(1H)-pyridinylidene]-urea] | – | – |
| 179 °C | Cc1cc/c(=N\c2nnc(C(F)(F)F)s2)n(-c2cccc(C(F)(F)F)c2)c1 [Example 6, N-(5-trifluoromethyl-1,3,4-thiadiazol-2-yl)-5-methyl-1-(3-trifluoromethyl-phenyl)-2(1H)-pyridinimine] | – | – |
| 206 °C | Cc1ccc(=NS(=O)(=O)C(F)(F)F)n(-c2cccc(C(F)(F)F)c2)c1 [Example 5, N-[5-methyl-1-(3-trifluoromethyl-phenyl)-2(1H)-pyridinylidene]-trifluoromethanesulphonamide] | – | – |
| 95 °C | Cc1ccc(=O)n(-c2cccc(C(F)(F)F)c2)c1 [IX-1, 5-methyl-1-(3-trifluoromethyl-phenyl)-2(1H)-pyridinone] | strong activity against weeds | activity against weeds (degree of damage) (weeds [2]): strong activity against weeds |
| – | Cc1ccc(=NC(=O)OC(C)C)n(-c2cccc(C(F)(F)F)c2)c1 [Example 2] | strong activity against weeds | chromatographic logP ([1]; HPLC, range (acidic/neutral) not labelled): 1.59 |
| 174 °C | Cc1ccc(S(=O)(=O)/N=c2\ccc(C)cn2-c2cccc(C(F)(F)F)c2)cc1 [Example 7, 4-methyl-N-[5-methyl-1-(3-trifluoromethylphenyl)-2(1H)-pyridinylidene]-benzenesulphonamide] | – | – |
| 165 °C | Cc1cc/c(=N\C#N)n(-c2cccc(C(F)(F)F)c2)c1 [Example 3, 5-methyl-1-(3-trifluoromethyl-phenyl)-2(1H)-pyridinylidenecyanamide] | strong activity against weeds | activity against weeds (degree of damage) (weeds [2]): strong activity against weeds |
| – | Cc1cc/c(=N\C2CC2)n(-c2cccc(C(F)(F)F)c2)c1 [Example 8, N-cyclopropyl-5-methyl-1-(3-trifluoromethylphenyl)-2(1H)-pyridineimine] | – | chromatographic logP ([1]; reversed-phase HPLC column (C 18), HPLC, range (acidic/neutral) not labelled): 1.51 |
